Laboratory results from patent US8741932B2, “Imidazopyridine derivatives” (Piramal Enterprises Limited, priority 2009, dated 2014).
Where two headings read alike, the source gives them in different places.

What was measured:
A549 = experiment: Cytotoxicity assay (propidium iodide), A549; assay type: cell-based; conditions: Homo sapiens; A549 (C1a, lung); 48 hours
Experimental: (§1) Cells from cell lines as mentioned in the table given below were seeded at a density of 3000 cells/well in a white opaque 96-well plate. Following incubation at 37° C./5% CO2 for a period of 18-24 hours, the cells were treated with various concentrations (stock solution was prepared in DMSO and subsequent dilutions were made in media as per ATCC guidelines) of the representative compounds of present invention (refer table 3) for a period of 48 hours. At the end of treatment, the spent culture medium was discarded, the cells were washed with 1×PBS and 200 μl of 7 μg/ml propidium iodide was added to each well. The plates were frozen at −70° C. for at least 24 hours. For analysis, the plates were brought to RT, allowed to thaw and were read in PolarStar fluorimeter with the fluorescence setting. The percentage of viable cells in the non treated set of wells was considered to be 100 and the percentage viability following treatment was calculated accordingly. IC50 values were calculated from graphs plotted using these percentages.

H460 = experiment: Cytotoxicity assay (propidium iodide), H460; assay type: cell-based; conditions: Homo sapiens, NCI-H460; H460 (C1b, lung); 48 hours
A2780 = experiment: Cytotoxicity assay (propidium iodide), A2780; assay type: cell-based; conditions: Homo sapiens; A2780 (C3a, ovarian); 48 hours
OVCAR 3 = experiment: Cytotoxicity assay (propidium iodide), OVCAR 3; assay type: cell-based; conditions: Homo sapiens; OVCAR 3 (C3c, ovarian); 48 hours
HCT116 = experiment: Cytotoxicity assay (propidium iodide), HCT116; assay type: cell-based; conditions: Homo sapiens, HCT-116; HCT116 (C4b, colon); 48 hours
Experimental: as §1

IL-6 = experiment: Human monocyte assay, LPS-stimulated IL-6; assay type: cell-based; conditions: Monocyte; human monocytes, 1 μg/ml LPS, 5 hours
Procedure, shortened: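 Adherent human PBMC-derived monocytes (2×10^4/well) were cultured 48 h, preincubated 30 min with compound or 0.5% DMSO, then stimulated with 1 μg/ml E. coli LPS for 5 h at 37° C. TNF-α and IL-6 in supernatants were measured by ELISA.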

PC3 = experiment: Cytotoxicity assay (propidium iodide), PC3; conditions: Homo sapiens, PC-3, 48 h, read-out: IC50 cytotoxicity
Experimental: as §1

mTOR = target: T1, mTOR (Homo sapiens, UniProt P42345); experiment: mTOR activity assay (cell ELISA, Phospho-AKT Ser 473, A2780 cells); assay type: cell-based
T1 construct: endogenous in cells; host or cells: A2780 ovarian cell line (ATCC)
Experimental: Seed cells (Ovarian cell line A2780, ATCC) were plated in a 96 well microtitre plate at a density of 50,000 cells/cm^2 in appropriate complete cell culture medium. The cells were allowed to adhere for 18-24 hours. The cells were allowed to starve for 24 hours. […] Then the cells were stimulated with 20% FCS for 30 minutes. A typical assay would consist of a set of unstimulated cells, a set of stimulated cells and a set of cells treated with compounds of present invention and a set of cells treated with the stimulator. The medium was discarded. The cells were fixed with 100 μL of 3.7% formaldehyde for 15 minutes. The formaldehyde was discarded by inverting the plate and tapping it on a thick tissue paper layer to remove traces. The cells were washed and permeabilized with 200 μL PBS+Triton-X 100 solution (hereafter referred to as PBS-Triton, containing 0.1% triton-X 100 in 1×PBS) three times, incubating the cells each time for 5 minutes. 100 μL blocking solution (10% FCS in PBS-Triton) was added and incubated for 1 hour at 25° C. The blocking solution was discarded and cells were incubated with the primary antibody in PBS-Triton at a dilution of 1:500 for 1 hour at RT (25° C.). [The primary antibody is Phospho-AKT (Ser 473); Cell Signaling; Cat. No. 9271]. The primary antibody solution was discarded and the cells were washed 3 times with PBS-Triton solution and incubated with the HRP-conjugated secondary antibody in PBS-Triton at a dilution of 1:500 for 1 hour at RT (25° C.). The cells were washed 3 times with PBS-Triton followed by two washes with PBS (to remove traces of triton-X 100). The OPD (o-phenylene diamine dihydrochloride) substrate was prepared for detection of the signal by dissolving one tablet set (two tablets) of SigmaFast OPD (Sigma, Cat No. P9187) in 20 mL distilled water. It should be protected from light. 100 μL OPD solutions was added to the wells and the plate was incubated in the dark for 3-5 minutes (depending upon the development of the color). The reaction was stopped by adding 50 μL 2 N H2SO4. The absorbance was measured at 490 nm. The values were expressed in the treated samples, in terms of percentage or fold decrease in AKT phosphorylation with respect to the induced sample. PI-103 (Calbiochem, USA) was used as a standard.

STAT3 = STAT3 bioassay (Hela Stat3-luc, luciferase); assay type: cell-based; conditions: Homo sapiens, Oncostatin M induction
Experimental: Cells were seeded (Hela Stat3-luc, ATCC P/N 30-2002) in a white 96 well plate (Nunc cat.no.136101) at a density of 20,000cells/well in 179 μl volume per well (DMEM from Sigma containing 10% FCS). The plate was incubated for 24 hours at 37° C./5% CO2. The cells (wells in triplicates) were then treated with 1 μl/well of 200× stock of the desired compound concentration prepared in 100% DMSO. Curcumin was used as a standard or positive control, added 10 μg/ml in triplicate. DMSO was used as medium control (1 μl/well added in triplicates). The plate was incubated at 37° C./5% CO2 for 1 hour. 20 μl/well Oncostatin M (Oncostatin M, Human, Recombinant, E. coli, Cat.No. 496260, 10 μg from Calbiochem) was added to treated wells, induction control (in triplicate) (1000 ng/ml stock prepared in serum free medium to get final concentration 100 ng/ml). The plate was then incubated for 7-8 hours at 37° C./5% CO2 for induction. A typical assay would consist of triplicate of medium control, triplicate of induction control, triplicate of positive/standard control and test compounds at desired concentration in triplicates. For termination Luciferase assay protocol was followed where the culture medium was removed from all the wells.
200 μl well of PBS was added to remove traces of medium and compound. The PBS was discarded. 40 μl/well of 1× lysis buffer was added to all the wells. The plate was incubated at RT for 20 minutes with intermittent shaking. 100 μl/well of LAB reagent was added to all the wells in dark. {LAB reagent for 1 plate=8 ml Luciferase assay buffer (LAB)+1 ml Coenzyme A (Sigma cat no. C3019) (2.1 mg/ml stock in LAB)+530 μL of ATP (Sigma cat.no.A2383) (5.85 mg/ml stock in LAB)+1 ml luciferin reagent (Promega cat no.245355) (2 mg/ml stock in LAB, protect from light)}.
The luminescence was immediately read on polar star. The values were expressed as percentage inhibition, in terms of treated values to that STAT3 (induction control). IC50 values were calculated from graphs using these percentages.

PI3Kα kinase = target: T2, PI3Kα kinase (Homo sapiens, UniProt P42336); experiment: Kinase assay (PI3Kα); assay type: biochemical; conditions: for IC50: read-out: IC50 (μM) for PI3K inhibition
T2 construct: purchased Millipore, USA
T2 sequence (P42336 whole entry): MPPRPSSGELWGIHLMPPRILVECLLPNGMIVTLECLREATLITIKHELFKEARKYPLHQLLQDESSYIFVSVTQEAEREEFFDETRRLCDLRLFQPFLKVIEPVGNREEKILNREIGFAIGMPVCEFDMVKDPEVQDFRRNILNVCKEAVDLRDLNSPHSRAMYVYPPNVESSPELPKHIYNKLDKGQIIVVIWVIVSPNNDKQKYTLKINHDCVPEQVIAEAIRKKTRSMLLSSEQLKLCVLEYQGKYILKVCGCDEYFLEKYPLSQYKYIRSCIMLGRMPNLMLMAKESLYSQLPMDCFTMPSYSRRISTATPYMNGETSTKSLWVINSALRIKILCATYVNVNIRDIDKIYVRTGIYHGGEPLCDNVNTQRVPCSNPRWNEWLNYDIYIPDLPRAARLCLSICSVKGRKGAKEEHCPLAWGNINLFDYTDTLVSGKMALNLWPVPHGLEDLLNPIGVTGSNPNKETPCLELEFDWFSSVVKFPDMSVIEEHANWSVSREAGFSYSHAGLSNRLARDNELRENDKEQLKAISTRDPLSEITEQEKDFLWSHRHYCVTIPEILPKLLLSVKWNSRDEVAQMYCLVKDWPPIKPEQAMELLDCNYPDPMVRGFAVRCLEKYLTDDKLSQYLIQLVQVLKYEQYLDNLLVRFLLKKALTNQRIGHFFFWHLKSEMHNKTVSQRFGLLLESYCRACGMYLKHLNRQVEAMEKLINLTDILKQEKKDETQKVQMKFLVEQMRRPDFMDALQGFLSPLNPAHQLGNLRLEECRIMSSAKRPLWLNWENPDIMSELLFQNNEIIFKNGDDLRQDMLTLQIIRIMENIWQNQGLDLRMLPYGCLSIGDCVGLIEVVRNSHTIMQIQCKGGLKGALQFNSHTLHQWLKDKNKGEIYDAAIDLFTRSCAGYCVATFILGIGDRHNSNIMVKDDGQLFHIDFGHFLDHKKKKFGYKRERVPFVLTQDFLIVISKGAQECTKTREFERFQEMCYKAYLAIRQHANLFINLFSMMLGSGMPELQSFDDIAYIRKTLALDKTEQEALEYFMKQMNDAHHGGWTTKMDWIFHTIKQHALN
T2 sequence (P27986 whole entry partner): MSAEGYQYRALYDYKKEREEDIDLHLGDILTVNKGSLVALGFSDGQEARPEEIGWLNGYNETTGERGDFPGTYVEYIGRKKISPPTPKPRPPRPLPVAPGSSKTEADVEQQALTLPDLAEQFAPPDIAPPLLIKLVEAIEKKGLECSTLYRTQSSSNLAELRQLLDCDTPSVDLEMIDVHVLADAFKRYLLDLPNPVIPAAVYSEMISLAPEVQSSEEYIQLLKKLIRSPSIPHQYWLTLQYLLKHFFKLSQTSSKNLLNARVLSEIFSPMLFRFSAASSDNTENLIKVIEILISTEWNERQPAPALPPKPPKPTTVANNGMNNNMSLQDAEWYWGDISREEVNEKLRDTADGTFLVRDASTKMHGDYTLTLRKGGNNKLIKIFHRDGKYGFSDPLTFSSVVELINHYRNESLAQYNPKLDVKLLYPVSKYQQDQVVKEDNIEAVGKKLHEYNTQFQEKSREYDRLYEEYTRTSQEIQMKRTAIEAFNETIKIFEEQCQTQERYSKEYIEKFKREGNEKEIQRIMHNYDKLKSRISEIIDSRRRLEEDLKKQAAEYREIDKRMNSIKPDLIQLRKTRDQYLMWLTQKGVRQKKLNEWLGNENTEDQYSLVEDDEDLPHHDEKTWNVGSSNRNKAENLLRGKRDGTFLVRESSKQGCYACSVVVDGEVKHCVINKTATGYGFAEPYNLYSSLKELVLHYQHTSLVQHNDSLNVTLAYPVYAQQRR
Experimental: The kinase reaction was carried out in a 25 μL volume in a 1.5 mL microcentrifuge tube. The reaction mixture consisted of kinase buffer (10 mM Hepes, pH 7.5, 50 mM MgCl2), 20 ng PI3Kα kinase (Millipore, USA), 12.5 μg phosphotidylinositol (PI), 10 μM ATP and 1 μCi ^32γ P […]. […] The reactions were incubated at 30° C. for 20 minutes and were terminated by adding 1:1 mixture of MeOH and CHCl3. The tube contents were mixed on a vortex mixer and centrifuged at 10000 rpm for 2 minutes. 10 μL of the organic (lower) phase was spotted on to a TLC plate (silica, mobile phase: n-propanol and 2 M glacial acetic acid in 65:35 ratio). The plates were dried and exposed to an X-ray film. The bands appearing as a result of ^32γ P incorporation in PI were quantitated using the Quantityl)ne (BioRad, USA) densitometry program. PI-103 (Calbiochem, USA) was used as a standard.

TNF-α = experiment: Human monocyte assay, LPS-stimulated TNF-α; assay type: cell-based; conditions: human monocytes, 1 μg/ml LPS, 5 hours
Experimental: The assay was designed as in the reference, Physiol.
Peripheral blood mononuclear cells (hPBMC) were harvested from human blood and suspended in RPMI 1640 culture medium containing 10% FCS, 100 U/mL penicillin and […] streptomycin (assay medium). Monocytes in the hPBMCs were counted using a Coulter Counter following which the cells were resuspended at 2×10^5 monocytes/mL. A cell suspension containing 2×10^4 monocytes was aliquoted per well of a 96-well plate. Subsequently, the hPBMCs were incubated for 4-5 hours at 37° C., 5% CO2 (During the incubation, the monocytes adhered to the bottom of 96-well plastic culture plate). Following the incubation, the non-adherent lymphocytes were washed with assay medium and the adherent monocytes re-fed with assay medium. After a 48-hour incubation period (37° C., 5% CO2), monocytes were pretreated with various concentrations of representative compounds of present invention (refer to table 6 and 7) (prepared in DMSO) or vehicle (0.5% DMSO) for 30 minutes and stimulated with 1 μg/ml LPS (Escherchia coli 0111:B4, Sigma Chemical Co., St. Louis, Mo.). The incubation was continued for 5 hours at 37° C., 5% CO2. Supernatants were harvested, assayed for IL-6 and TNF-α by ELISA as described by the manufacturer (BD Biosciences, USA). Dexamethasone (10 μM) was used as standard for this assay. […] Biological results for both IL-6 and TNFα are indicated in Table 6 and Table 7 respectively.

[1] = read-out: % Inhibition of mTOR activity at 1 μM

Row | Structure (SMILES) | IC50 (IL-6) [µM] | inhibition at 1 µM (mTOR; [1]) [%] | IC50 (PI3Kα kinase) [µM] | IC50 (A549) [nM] | IC50 (H460) [nM] | IC50 (A2780) [nM] | other results
1 | Cc1ccc(S(=O)(=O)N(C)N=Cc2cnc3ccc(-c4cccnc4)cn23)cc1 [Example 3, N, 4-dimethyl-N′-((6-(pyridine-3-yl)imidazo[1,2-a]pyridine-3-yl)methylene) benzenesulfonohydrazide] | ≥ 5 |  |  | 10 to 5000 | 10 to 5000 | 10 to 5000 | IC50 (OVCAR 3): 10 to 5000 nM; IC50 (HCT116): 10 to 5000 nM; IC50 (PC3): 10 to 5000 nM
2 | CN(N=Cc1cnc2ccc(-c3cccnc3)cn12)S(=O)(=O)c1ccc(Br)cc1 [Example 8, 4-Bromo-N-methyl-N′-((6-(pyridine-3-yl)imidazo[1,2-a]pyridine-3-yl)methylene)benzenesulfonohydrazide] |  | 30 to 50 |  |  |  |  | IC50 (STAT3): 100 to 5000 nM
3 | COc1ccc(S(=O)(=O)N(C)N=Cc2cnc3ccc(-c4cccnc4)cn23)cc1 [Example 12, 4-Methoxy-N-methyl-N′-((6-(pyridine-3-yl)imidazo[1,2-a]pyridine-3-yl)methylene)benzenesulfonohydrazide] |  |  |  | 10 to 5000 | 10 to 5000 | 10 to 5000 | IC50 (OVCAR 3): 10 to 5000 nM; IC50 (HCT116): 10 to 5000 nM; IC50 (PC3): 10 to 5000 nM
4 | CN(N=Cc1cnc2ccc(-c3cccnc3)cn12)S(=O)(=O)c1ccc(F)c(F)c1 [Example 15, 3,4-difluoro-N-methyl-N′-((6-(pyridine-3-yl)imidazo[1,2-a]pyridine-3-yl)methylene) benzenesulfonohydrazide] |  | 30 to 50 | 0.5 to 1 |  |  |  | IC50 (STAT3): 100 to 5000 nM
5 | CN(N=Cc1cnc2ccc(-c3cccnc3)cn12)S(=O)(=O)c1cccc(Cl)c1F [Example 17, 3-Chloro-2-fluoro-N-methyl-N′-((6-(pyridine-3-yl)imidazo[1,2-a]pyridine-3-yl)methylene) benzenesulfonohydrazide] | 0.001 to 5 | 30 to 50 | 0.01 to 0.5 |  |  |  | 
6 | CN(N=Cc1cnc2ccc(-c3cccnc3)cn12)S(=O)(=O)c1cc(C(F)(F)F)cc(C(F)(F)F)c1 [Example 23, N-methyl-N′-((6-(pyridine-3-yl)imidazo[1,2-a]pyridine-3-yl)methylene)-3,5-bis(trifluoromethyl)benzenesulfonohydrazide] | 0.001 to 5 | 30 to 50 | 0.01 to 0.5 | 10 to 5000 | 10 to 5000 | 10 to 5000 | 
7 | CN(N=Cc1cnc2ccc(-c3cccnc3)cn12)S(=O)(=O)c1cccs1 [Example 29, N-methyl-N′-((6-(pyridine-3-yl)imidazo[1,2-a]pyridine-3-yl)methylene) thiophene-2-sulfonohydrazide] |  |  |  | 10 to 5000 | 10 to 5000 | 10 to 5000 | IC50 (OVCAR 3): 10 to 5000 nM; IC50 (HCT116): 10 to 5000 nM; IC50 (PC3): 10 to 5000 nM
8 | Oc1cccc(-c2nc(N3CCOCC3)c3oc4ncccc4c3n2)c1 [PI-103, reference compound] |  |  |  |  |  |  | inhibition at 0.1 µM (PI3Kα kinase; at 100 nM): 80%; inhibition at 1 µM (mTOR; read-out: % Inhibition of mTOR activity at 1 μM (number, standard)): 50%

Continued, in another order:

Row | IC50 (IL-6) [µM] | inhibition at 1 µM (mTOR; [1]) [%] | IC50 (PI3Kα kinase) [µM] | Structure (SMILES) | IC50 (A549) [nM] | IC50 (H460) [nM] | IC50 (A2780) [nM] | other results
9 | 0.001 to 5 |  |  | COc1ccc(F)cc1S(=O)(=O)N(C)/N=C/c1cnc2ccc(-c3cccnc3)cn12 [Example 45, (E)-5-fluoro-2-methoxy-N-methyl-N′-((6-(pyridin-3-yl)imidazo[1,2-a]pyridin-3-yl)methylene)benzenesulfonohydrazide] | 10 to 5000 | 10 to 5000 |  | IC50 (TNF-α): 1 to 1000 nM
10 | 0.001 to 5 | 30 to 50 | 0.01 to 0.5 | CCN(/N=C/c1cnc2ccc(-c3cccnc3)cn12)S(=O)(=O)c1cc([N+](=O)[O-])ccc1C [Example 84] |  |  |  | 
11 | 0.001 to 5 |  |  | Cc1cc(-c2cccnc2)cn2c(/C=N/N(C)S(=O)(=O)c3ccc(F)c(C#N)c3)cnc12 [Example 105, (E)-3-cyano-4-fluoro-N-methyl-N′-((8-methyl-6-(pyridin-3-yl)imidazo[1,2-a]pyridin-3-yl)methylene)benzenesulfonohydrazide] |  |  |  | IC50 (TNF-α): 1 to 1000 nM
12 | ≥ 5 |  | 0.01 to 0.5 | Cc1ccc(F)cc1S(=O)(=O)N(C)/N=C/c1cnc2ccc(-c3cc4ccccc4[nH]3)cn12 [Example 115, (E)-N′-((6-(1H-indol-2-yl)imidazo[1,2-a]pyridin-3-yl)methylene)-5-fluoro-N,2-dimethylbenzenesulfonohydrazide] |  |  |  | IC50 (mTOR): 5000 to 10000 nM; IC50 (STAT3): 5000 to 10000 nM
